Source: patent publication US20250101041A1, “POSITIVE ALLOSTERIC MODULATORS OF THE MUSCARINIC ACETYLCHOLINE RECEPTOR M4” (Vanderbilt University, priority 2022, published 2025)

Molecular target: T1, human mAChR M4 (Homo sapiens, UniProt P08173)
T1 construct: expressed in transfected cells; host or cells: CHO-K1 (American Type Culture Collection), stably expressing hM4 and Gqi5
T1 sequence (P08173 1-479): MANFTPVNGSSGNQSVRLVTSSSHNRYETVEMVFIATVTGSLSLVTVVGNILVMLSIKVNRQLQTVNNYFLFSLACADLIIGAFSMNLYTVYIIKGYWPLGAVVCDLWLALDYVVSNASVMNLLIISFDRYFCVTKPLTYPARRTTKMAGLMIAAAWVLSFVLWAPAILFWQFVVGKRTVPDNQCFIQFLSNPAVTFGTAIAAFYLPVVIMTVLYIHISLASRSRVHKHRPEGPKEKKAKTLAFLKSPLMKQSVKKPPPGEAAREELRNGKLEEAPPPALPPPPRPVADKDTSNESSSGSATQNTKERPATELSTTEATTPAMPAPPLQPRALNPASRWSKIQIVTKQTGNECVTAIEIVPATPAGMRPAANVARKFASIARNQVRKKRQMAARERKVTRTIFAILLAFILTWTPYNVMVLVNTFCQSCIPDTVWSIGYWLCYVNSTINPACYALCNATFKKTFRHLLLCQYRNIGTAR
Assay: mAChR M4 cell-based functional assay: calcium mobilization (Fluo-4, FDSS), potentiation of EC20 acetylcholine response in hM4-Gqi5 CHO-K1 cells
Conditions: human M4; for Emax at 30 µM: CHO-K1, % ACh maximum at 30 μM; for EC50: potentiation of EC20 acetylcholine response, calcium mobilization
How it was run: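 Readout is the fluorescence-ratio rise at 1 Hz on FDSS, with PAM activity taken as concentration-dependent enhancement of the EC20 acetylcholine response, fitted four-parameter for EC50/Emax. hM4-Gqi5 CHO-K1 cells carried Fluo-4 AM dye; test compounds (11 points, 1:3) preceded EC20 acetylcholine additions at 144 s and 230 s.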

SMILES	Emax at 30 µM [%]	EC50 [µM]
Cc1cc(=O)n2nc(N3CCc4ncc(-c5cnc(Cl)cc5C)cc4C3)c(C)cc2n1 [Compound 1-207, 7-(3-(6-chloro-4-methylpyridin-3-yl)-7,8-dihydro-1,6-naphthyridin-6(5H)-yl)-2,8-dimethyl-4H-pyrimido[1,2-b]pyridazin-4-one]	91	0.315
Cc1cc(=O)n2nc(N3CCc4ncc(-c5cc(F)c(F)cc5F)cc4C3)c(C)cc2n1 [Compound 1-208, 2,8-dimethyl-7-(3-(2,4,5-trifluorophenyl)-7,8-dihydro-1,6-naphthyridin-6(5H)-yl)-4H-pyrimido[1,2-b]pyridazin-4-one]	86	0.518
Cc1cc(=O)n2nc(N3CCc4ncc(-c5cnc(F)cc5C)cc4C3)c(C)cc2n1 [Compound 1-209, 7-(3-(6-fluoro-4-methylpyridin-3-yl)-7,8-dihydro-1,6-naphthyridin-6(5H)-yl)-2,8-dimethyl-4H-pyrimido[1,2-b]pyridazin-4-one]	88	0.266
Cc1cc(=O)n2nc(N3CCc4ncc(-c5cc(F)ccc5C)cc4C3)c(C)cc2n1 [Compound 1-210, 7-(3-(5-fluoro-2-methylphenyl)-7,8-dihydro-1,6-naphthyridin-6(5H)-yl)-2,8-dimethyl-4H-pyrimido[1,2-b]pyridazin-4-one]	84	0.287
Cc1cc(=O)n2nc(N3CCc4ncc(-c5cccc(F)c5)cc4C3)c(C)cc2n1 [Compound 1-211, 7-(3-(3-fluorophenyl)-7,8-dihydro-1,6-naphthyridin-6(5H)-yl)-2,8-dimethyl-4H-pyrimido[1,2-b]pyridazin-4-one]	76	0.446
Cc1cc(=O)n2nc(N3CCc4ncc(-c5ccc(F)nc5)cc4C3)c(C)cc2n1 [Compound 1-212, 7-(3-(6-fluoropyridin-3-yl)-7,8-dihydro-1,6-naphthyridin-6(5H)-yl)-2,8-dimethyl-4H-pyrimido[1,2-b]pyridazin-4-one]	83	0.867
Cc1cc(=O)n2nc(N3CCc4ncc(-c5ccc(F)c(F)c5)cc4C3)c(C)cc2n1 [Compound 1-213, 7-(3-(3,4-difluorophenyl)-7,8-dihydro-1,6-naphthyridin-6(5H)-yl)-2,8-dimethyl-4H-pyrimido[1,2-b]pyridazin-4-one]	82	0.443
Cc1cc(=O)n2nc(N3CCc4ncc(-c5cnccc5C)cc4C3)c(C)cc2n1 [Compound 1-214, 2,8-dimethyl-7-(3-(4-methylpyridin-3-yl)-7,8-dihydro-1,6-naphthyridin-6(5H)-yl)-4H-pyrimido[1,2-b] pyridazin-4-one]	82	0.139
Cc1cc(=O)n2nc(N3CCc4ncc(-c5cnn(C(F)F)c5)cc4C3)c(C)cc2n1 [Compound 1-215, 7-(3-(1-(difluoromethyl)-1H-pyrazol-4-yl)-7,8-dihydro-1,6-naphthyridin-6(5H)-yl)-2,8-dimethyl-4H-pyrimido[1,2-b]pyridazin-4-one]	85	0.338
COc1ccc(-c2cnc3c(c2)CN(c2nn4c(=O)cc(C)nc4cc2C)CC3)cc1F [Compound 1-216, 7-(3-(3-fluoro-4-methoxyphenyl)-7,8-dihydro-1,6-naphthyridin-6(5H)-yl)-2,8-dimethyl-4H-pyrimido[1,2-b]pyridazin-4-one]	79	0.38
Cc1cc(=O)n2nc(N3CCc4ncc(-c5cn6ccnc6cc5C)cc4C3)c(C)cc2n1 [Compound 1-217, 2,8-dimethyl-7-(3-(7-methylimidazo[1,2-a]pyridin-6-yl)-7,8-dihydro-1,6-naphthyridin-6(5H)-yl)-4H-pyrimido[1,2-b]pyridazin-4-one]	60	0.655
Cc1cc(=O)n2nc(N3CCc4ncc(-c5c(C)nn(C)c5C)cc4C3)c(C)cc2n1 [Compound 1-218, 2,8-dimethyl-7-(3-(1,3,5-trimethyl-1H-pyrazol-4-yl)-7,8-dihydro-1,6-naphthyridin-6(5H)-yl)-4H-pyrimido[1,2-b] pyridazin-4-one]	92	0.793
CCn1cc(-c2cnc3c(c2)CN(c2nn4c(=O)cc(C)nc4cc2C)CC3)cn1 [Compound 1-219, 7-(3-(1-ethyl-1H-pyrazol-4-yl)-7,8-dihydro-1,6-naphthyridin-6(5H)-yl)-2,8-dimethyl-4H-pyrimido[1,2-b]pyridazin-4-one]	80	0.341
Cc1cc(=O)n2nc(N3CCc4ncc(-c5ccc6nccn6c5)cc4C3)c(C)cc2n1 [Compound 1-220, 7-(3-(imidazo[1,2-a]pyridin-6-yl)-7,8-dihydro-1,6-naphthyridin-6(5H)-yl)-2,8-dimethyl-4H-pyrimido[1,2-b]pyridazin-4-one]	70	0.747
Cc1cc(=O)n2nc(N3CCc4ncc(-c5ccc(N(C)C)nc5)cc4C3)c(C)cc2n1 [Compound 1-221, 7-(3-(6-(dimethylamino)pyridin-3-yl)-7,8-dihydro-1,6-naphthyridin-6(5H)-yl)-2,8-dimethyl-4H-pyrimido[1,2-b]pyridazin-4-one]	58	0.17
Cc1ccccc1-c1cnc2c(c1)CN(c1nn3c(=O)ccnc3c(C)c1C)CC2 [Compound 1-222, 8,9-dimethyl-7-(3-(o-tolyl)-7,8-dihydro-1,6-naphthyridin-6(5H)-yl)-4H-pyrimido[1,2-b] pyridazin-4-one]	83	0.074
Cc1c(N2CCc3ncc(-c4cncc(C#N)c4)cc3C2)nn2c(=O)ccnc2c1C [Compound 1-223, 5-(6-(8,9-dimethyl-4-oxo-4H-pyrimido[1,2-b]pyridazin-7-yl)-5,6,7,8-tetrahydro-1,6-naphthyridin-3-yl)nicotinonitrile]	64	0.618
Cc1c(N2CCc3ncc(-c4cnc5ccccc5c4)cc3C2)nn2c(=O)ccnc2c1C [Compound 1-224, 8,9-dimethyl-7-(3-(quinolin-3-yl)-7,8-dihydro-1,6-naphthyridin-6(5H)-yl)-4H-pyrimido[1,2-b]pyridazin-4-one]	60	0.651
Cc1c(N2CCc3ncc(-c4ccc5nccn5c4)cc3C2)nn2c(=O)ccnc2c1C [Compound 1-225, 7-(3-(imidazo[1,2-a]pyridin-6-yl)-7,8-dihydro-1,6-naphthyridin-6(5H)-yl)-8,9-dimethyl-4H-pyrimido[1,2-b]pyridazin-4-one]	66	0.232
Cc1ccc(-c2cnc3c(c2)CN(c2nn4c(=O)cc(CC5CCCC5)nc4c(C)c2C)CC3)cn1 [Compound 1-226, 2-(cyclopentylmethyl)-8,9-dimethyl-7-(3-(6-methylpyridin-3-yl)-7,8-dihydro-1,6-naphthyridin-6(5H)-yl)-4H-pyrimido[1,2-b]pyridazin-4-one]	59	1.19
COCc1cc(=O)n2nc(N3CCc4ncc(-c5cc(F)ccc5C)cc4C3)c(C)c(C)c2n1 [Compound 1-227, 7-(3-(5-fluoro-2-methylphenyl)-7,8-dihydro-1,6-naphthyridin-6(5H)-yl)-2-(methoxymethyl)-8,9-dimethyl-4H-pyrimido[1,2-b]pyridazin-4-one]	83	0.135
COCc1cc(=O)n2nc(N3CCc4ncc(-c5cnccc5C)cc4C3)c(C)c(C)c2n1 [Compound 1-228, 2-(methoxymethyl)-8,9-dimethyl-7-(3-(4-methylpyridin-3-yl)-7,8-dihydro-1,6-naphthyridin-6(5H)-yl)-4H-pyrimido[1,2-b] pyridazin-4-one]	85	0.034
COCc1cc(=O)n2nc(N3CCc4ncc(-c5cnc(F)cc5C)cc4C3)c(C)c(C)c2n1 [Compound 1-229, 7-(3-(6-fluoro-4-methylpyridin-3-yl)-7,8-dihydro-1,6-naphthyridin-6(5H)-yl)-2-(methoxymethyl)-8,9-dimethyl-4H-pyrimido[1,2-b]pyridazin-4-one]	90	0.048
Cc1cc(=O)n2nc(N3CCc4ncc(-c5ccccc5C(C)C)cc4C3)c(C)cc2n1 [Compound 1-230, 7-(3-(2-isopropylphenyl)-7,8-dihydro-1,6-naphthyridin-6(5H)-yl)-2,8-dimethyl-4H-pyrimido[1,2-b]pyridazin-4-one]	43	1.3
Cc1cc(=O)n2nc(N3CCc4ncc(-c5ccccc5C5CC5)cc4C3)c(C)cc2n1 [Compound 1-231, 7-(3-(2-cyclopropylphenyl)-7,8-dihydro-1,6-naphthyridin-6(5H)-yl)-2,8-dimethyl-4H-pyrimido[1,2-b]pyridazin-4-one]	56	0.859
CCc1ccccc1-c1cnc2c(c1)CN(c1nn3c(=O)cc(C)nc3cc1C)CC2 [Compound 1-232, 7-(3-(2-ethylphenyl)-7,8-dihydro-1,6-naphthyridin-6(5H)-yl)-2,8-dimethyl-4H-pyrimido[1,2-b]pyridazin-4-one]	57	0.441
